Values of other authors as cited in patent US20150335557A1, “ANTI-PLAQUE ORAL COMPOSITIONS” (priority 2012, published 2015).

Conditions: @ 79° F.

## CS(C)(=O)=O [MSM, methylsulfonylmethane]
  water solubility: 34 % w/v
